According to ChEMBL document CHEMBL4418493, “N-hydroxyformamide compounds and compositions comprising them for use as BMP1, TLL1 and/or TLL2 inhibitors” (2018):

How the values were obtained:
[1] = Reduction in PICP levels in human cardiac fibroblasts incubated for 24 to 48 hrs by ELISA; type: functional
[2] = Drug metabolism in heparinized pooled human plasma at pH 7.5 assessed as formation of (S)-2-(2-ethoxy-4-(5-((((R)-2-((R)-1-(N-hydroxyformamido)propyl)heptanamido)methyl) carbamoyl)furan-2-yl)benzamido)succinic acid at 100 to 2000 ng/ml incubated up to 4 or 24 hrs by LC-MS/MS analysis; type: ADME, cell-free; conditions: pH 7.5, 24 h

| SMILES | Drug metabolism [2] | IC50 [1] |
| --- | --- | --- |
| CCCCC[C@@H](C(=O)NCNC(=O)c1ccc(-c2ccc(C(=O)N[C@@H](CC(=O)O)C(=O)O)c(OCC)c2)o1)[C@@H](CC)N(C=O)OC(=O)c1cccc(N(C)C)c1 | Metabolite_Detected |  |
| CCCCC[C@@H](C(=O)NCNC(=O)c1ccc(-c2ccc(C(=O)N[C@@H](CC(=O)O)C(=O)O)c(OCC)c2)o1)[C@@H](CC)N(C=O)OC(=O)c1ccc([N+](=O)[O-])cc1C | Metabolite_Detected |  |
| CCCCC[C@@H](C(=O)NCNC(=O)c1ccc(-c2ccc(C(=O)N[C@@H](CC(=O)O)C(=O)O)c(OCC)c2)o1)[C@@H](CC)N(C=O)OC(=O)c1cccc(N2CCCC2)c1.N.N | Metabolite_Detected | < 3.98 µM |
| CCCCC[C@@H](C(=O)NCNC(=O)c1ccc(-c2ccc(C(=O)N[C@@H](CC(=O)O)C(=O)O)c(OCC)c2)o1)[C@@H](CC)N(C=O)OC(=O)c1ccc(OC)cc1Cl | Metabolite_Detected |  |
| CCCCC[C@@H](C(=O)NCNC(=O)c1ccc(-c2ccc(C(=O)N[C@@H](CC(=O)O)C(=O)O)c(OCC)c2)o1)[C@@H](CC)N(C=O)OC(=O)C(CC)CC | Metabolite_Detected | < 3.98 µM |
| CCCCC[C@@H](C(=O)NCNC(=O)c1ccc(-c2ccc(C(=O)N[C@@H](CC(=O)O)C(=O)O)c(OCC)c2)o1)[C@@H](CC)N(C=O)OC(=O)c1ccc(OC)cc1 | Metabolite_Detected | < 3.98 µM |
| CCCCC[C@@H](C(=O)NCNC(=O)c1ccc(-c2ccc(C(=O)N[C@@H](CC(=O)O)C(=O)O)c(OCC)c2)o1)[C@@H](CC)N(C=O)OC(=O)c1ccc(CN)cc1 | Metabolite_Detected |  |
| CCCCC[C@@H](C(=O)NCNC(=O)c1ccc(-c2ccc(C(=O)N[C@@H](CC(=O)O)C(=O)O)c(OCC)c2)o1)[C@@H](CC)N(C=O)OC(=O)c1cccc(NC)c1 | Metabolite_Detected |  |
| CCCCC[C@@H](C(=O)NCNC(=O)c1ccc(-c2ccc(C(=O)N[C@@H](CC(=O)O)C(=O)O)c(OCC)c2)o1)[C@@H](CC)N(C=O)OC(=O)c1c(C)cccc1OP(=O)(O)O | Metabolite_Detected |  |
| CCCCC[C@@H](C(=O)NCNC(=O)c1ccc(-c2ccc(C(=O)N[C@@H](CC(=O)O)C(=O)O)c(OCC)c2)o1)[C@@H](CC)N(C=O)OC(=O)c1ccc(F)cc1C | Metabolite_Detected | < 3.98 µM |
| CCCCC[C@@H](C(=O)NCNC(=O)c1ccc(-c2ccc(C(=O)N[C@@H](CC(=O)O)C(=O)O)c(OCC)c2)o1)[C@@H](CC)N(C=O)OC(=O)c1ccc2c(c1)N(C)CCO2.N.N | Metabolite_Detected | < 3.98 µM |
| CCCCC[C@@H](C(=O)NCNC(=O)c1ccc(-c2ccc(C(=O)N[C@@H](CC(=O)O)C(=O)O)c(OCC)c2)o1)[C@@H](CC)N(C=O)OC(=O)c1ccc(N)cc1 | Metabolite_Detected |  |
| CCCCC[C@@H](C(=O)NCNC(=O)c1ccc(-c2ccc(C(=O)N[C@@H](CC(=O)O)C(=O)O)c(OCC)c2)o1)[C@@H](CC)N(C=O)OC(=O)Nc1ccccc1 | Metabolite_Detected |  |
| CCCCC[C@@H](C(=O)NCNC(=O)c1ccc(-c2ccc(C(=O)N[C@@H](CC(=O)O)C(=O)Oc3ccccc3)c(OCC)c2)o1)[C@@H](CC)N(O)C=O | Metabolite_Detected |  |
| CCCCC[C@@H](C(=O)NCNC(=O)c1ccc(-c2ccc(C(=O)N[C@@H](CC(=O)O)C(=O)OCOC(=O)C(C)C)c(OCC)c2)o1)[C@@H](CC)N(O)C=O | Metabolite_Detected | < 3.98 µM |
| CCCCC[C@@H](C(=O)NCNC(=O)c1ccc(-c2ccc(C(=O)N[C@@H](CC(=O)O)C(=O)O)c(OCC)c2)o1)[C@@H](CC)N(C=O)OC(=O)c1ccc(N2CCCC2=O)cc1.N.N | Metabolite_Detected | < 3.98 µM |
| CCCCC[C@@H](C(=O)NCNC(=O)c1ccc(-c2ccc(C(=O)N[C@@H](CC(=O)O)C(=O)O)c(OCC)c2)o1)[C@@H](CC)N(C=O)OC(=O)c1ccc(NC)cc1 | Metabolite_Detected |  |

Further lines, with some results ahead:

| Drug metabolism [2] | SMILES | IC50 [1] |
| --- | --- | --- |
| Metabolite_Detected | CCCCC[C@@H](C(=O)NCNC(=O)c1ccc(-c2ccc(C(=O)N[C@@H](CC(=O)O)C(=O)O)c(OCC)c2)o1)[C@@H](CC)N(C=O)OCOC(=O)C(C)(C)C | < 3.98 µM |
| Metabolite_Detected | CCCCC[C@@H](C(=O)NCNC(=O)c1ccc(-c2ccc(C(=O)N[C@@H](CC(=O)O)C(=O)O)c(OCC)c2)o1)[C@@H](CC)N(C=O)OC(=O)c1ccc(OC)c(OC)c1 | < 3.98 µM |
| Metabolite_Detected | CCCCC[C@@H](C(=O)NCNC(=O)c1ccc(-c2ccc(C(=O)N[C@@H](CC(=O)O)C(=O)O)c(OCC)c2)o1)[C@@H](CC)N(C=O)OC(=O)NC(C)C | < 3.98 µM |
| Metabolite_Detected | CCCCC[C@@H](C(=O)NCNC(=O)c1ccc(-c2ccc(C(=O)N[C@@H](CC(=O)O)C(=O)O)c(OCC)c2)o1)[C@@H](CC)N(C=O)OC(=O)c1ccc(-n2cccn2)cc1 | < 3.98 µM |
| Metabolite_Detected | CCCCC[C@@H](C(=O)NCNC(=O)c1ccc(-c2ccc(C(=O)N[C@@H](CC(=O)O)C(=O)O)c(OCC)c2)o1)[C@@H](CC)N(C=O)OC(=O)c1ccc2c(c1)OCCO2.N.N | < 3.98 µM |
| Metabolite_Detected | CCCCC[C@@H](C(=O)NCNC(=O)c1ccc(-c2ccc(C(=O)N[C@@H](CC(=O)O)C(=O)O)c(OCC)c2)o1)[C@@H](CC)N(C=O)OC(=O)c1ccc(CN2CCOCC2)cc1 | < 3.98 µM |
| Metabolite_Detected | CCCCC[C@@H](C(=O)NCNC(=O)c1ccc(-c2ccc(C(=O)N[C@@H](CC(=O)O)C(=O)OCc3oc(=O)oc3C)c(OCC)c2)o1)[C@@H](CC)N(O)C=O |  |
| Metabolite_Detected | CCCCC[C@@H](C(=O)NCNC(=O)c1ccc(-c2ccc(C(=O)N[C@@H](CC(=O)O)C(=O)O)c(OCC)c2)o1)[C@@H](CC)N(C=O)OC(=O)c1ccc(F)cc1C(C)C | < 3.98 µM |
| Metabolite_Detected | CCCCC[C@@H](C(=O)NCNC(=O)c1ccc(-c2ccc(C(=O)N[C@@H](CC(=O)O)C(=O)O)c(OCC)c2)o1)[C@@H](CC)N(C=O)OC(=O)c1ccc(OC)cc1C(C)C |  |
| Metabolite_Detected | CCCCC[C@@H](C(=O)NCNC(=O)c1ccc(-c2ccc(C(=O)N[C@@H](CC(=O)O)C(=O)O)c(OCC)c2)o1)[C@@H](CC)N(C=O)OC(=O)c1ccc(OC)cc1Br |  |
| Metabolite_Detected | CCCCC[C@@H](C(=O)NCNC(=O)c1ccc(-c2ccc(C(=O)N[C@@H](CC(=O)O)C(=O)O)c(OCC)c2)o1)[C@@H](CC)N(C=O)OC(=O)c1ccc([N+](=O)[O-])cc1 | < 3.98 µM |
| Metabolite_Detected | CCCCC[C@@H](C(=O)NCNC(=O)c1ccc(-c2ccc(C(=O)N[C@@H](CC(=O)O)C(=O)O)c(OCC)c2)o1)[C@@H](CC)N(C=O)OC(=O)c1ccc(-n2cccc2)cc1.N.N |  |
| Metabolite_Detected | CCCCC[C@@H](C(=O)NCNC(=O)c1ccc(-c2ccc(C(=O)N[C@@H](CC(=O)O)C(=O)O)c(OCC)c2)o1)[C@@H](CC)N(C=O)OC(=O)c1ccc(-n2ccnc2)cc1 | < 3.98 µM |
| Metabolite_Detected | CCCCC[C@@H](C(=O)NCNC(=O)c1ccc(-c2ccc(C(=O)N[C@@H](CC(=O)O)C(=O)O)c(OCC)c2)o1)[C@@H](CC)N(C=O)OC(=O)c1cccc(N)c1 |  |
| Metabolite_Detected | CCCCC[C@@H](C(=O)NCNC(=O)c1ccc(-c2ccc(C(=O)N[C@@H](CC(=O)O)C(=O)O)c(OCC)c2)o1)[C@@H](CC)N(C=O)OC(=O)c1ccc(OC)cc1C.N.N |  |
